Measurements taken from patent publication US9174949B2, “Hedgehog inhibitors” (SELEXAGEN THERAPEUTICS, INC., priority 2010, dated 2015).

What follows are molecules tested on hedgehog pathway signaling (assay: Method A: cell differentiation assay, sonic hedgehog stimulated alkaline phosphatase activity). Conditions: Mus musculus, Shh-N 2 μg/mL, 72 hours, C3H10T1/2 or M2-10B4 cells.
Assay type: cell-based
Description: The ability of compounds described in the current invention to inhibit hedgehog pathway signaling was determined from the following cell differentiation assays (Method A, or Modified Method A as described below) in which cellular alkaline phosphatase activity is assessed in the presence of control vehicle or test compound, as previously described in the literature (Wu et al., Chemistry & Biology, 11: 1229-1238, 2004; Couve-Privat, et al., Cancer Research, 64; 3559-3565, 2004; Dwyer et al., J. Biological Chemistry, 282: 8959-8968, 2007) with modifications as described below.
Method A: Mouse C3H10T1/2 (CCL-226™) or M2-10B4 (CRL-1972™) cells obtained from the American Type Tissue Culture Collection (Maryland, USA) were cultured to 60-80% confluence in Dulbecco's modified Eagle's Medium (C3H10T1/2 cells) containing heat-inactivated 10% fetal bovine serum or RPMI-1640 media (M2-10B4 cells) containing heat-inactivated 10% fetal bovine serum. Cell cultures were maintained in 10 U/mL penicillin, 100 μg/mL streptomycin and 2 mM glutamine. Cells were then trypsinized, counted and plated into 96-well microtiter plates prior to incubation overnight at 37° C. in 5% CO2. […] Similarly, an IC90 was determined. […]
In the case of `Cc1nc(-c2ccc(NC(=O)c3ccc(S(C)(=O)=O)cc3Cl)cc2)cs1` [Example 4, 2-chloro-4-(methylsulfonyl)-N-(4-(2-methylthiazol-4-yl)phenyl)benzamide], the IC90 is reported as 0.3 µM.

Same assay, conditions: Mus musculus, Shh-N 2 μg/mL, 72 hours, C3H10T1/2 or M2-10B4 cells, read-out: IC50 (50% inhibition of sonic hedgehog stimulated alkaline phosphatase activity)
`Cc1nc(-c2ccc(NC(=O)c3ccc(S(C)(=O)=O)cc3Cl)cc2)cs1` [Example 4, 2-chloro-4-(methylsulfonyl)-N-(4-(2-methylthiazol-4-yl)phenyl)benzamide] gave an IC50 of 0.063 µM.

What follows are molecules tested on hedgehog pathway signaling (assay: Modified Method A: purmorphamine stimulated alkaline phosphatase activity in C3H10T1/2 cells). Conditions: Mus musculus, C3H 10T1/2, compound at 500 nM, 100 nM purmorphamine, 72 hours, read-out: Activity Ranking (percent activity compared to control alkaline phosphatase activity).
Assay type: cell-based
For `Cc1nc(-c2ccc(NC(=O)c3ccc(Cl)cc3Cl)cc2)cs1` [Example 1, 2,4-dichloro-N-(4-(2-methylthiazol-4-yl)phenyl)benzamide], the activity at 0.5 µM was 0 to 25%.
Work on `COc1cc(C(=O)Nc2ccc(-c3csc(C)n3)cc2)cc(OC)c1OC` [Example 2] yielded an activity at 0.5 µM of 51 to 75%.
`COc1ccc(C(=O)Nc2ccc(-c3csc(C)n3)cc2)cc1` [Example 3] gave an activity at 0.5 µM of 0 to 25%.
Work on `Cc1nc(-c2ccc(NC(=O)c3ccc(S(C)(=O)=O)cc3Cl)cc2)cs1` [Example 4, 2-chloro-4-(methylsulfonyl)-N-(4-(2-methylthiazol-4-yl)phenyl)benzamide] yielded an activity at 0.5 µM of 0 to 25%.
Molecule `COc1ccc(C(=O)Nc2ccc(-c3csc(C)n3)cc2)c(CN2CCOCC2)c1` [Example 5] has an activity at 0.5 µM of 0 to 25%.
`Cc1nc(-c2ccc(NC(=O)c3ccc(S(C)(=O)=O)cc3Cl)cc2)co1` [Example 6] gave an activity at 0.5 µM of 26 to 50%.
Molecule `Cc1nc(-c2ccc(NC(=O)c3ccc(S(C)(=O)=O)cc3Cl)cc2Cl)cs1` [Example 7, 2-chloro-N-(3-chloro-4-(2-methylthiazol-4-yl)phenyl)-4-(methylsulfonyl)benzamide] has an activity at 0.5 µM of 51 to 75%.
For `COc1ccc(C(=O)Nc2ccc(-c3csc(C)n3)cc2)c(Cl)c1` [Example 8], the activity at 0.5 µM was 0 to 25%.
`Cc1nc(-c2ccc(N(C)C(=O)c3ccc(S(C)(=O)=O)cc3Cl)cc2)cs1` [Example 9, 2-chloro-N-methyl-4-(methylsulfonyl)-N-(4-(2-methylthiazol-4-yl)phenyl)benzamide] was tested, and the activity at 0.5 µM was 76 to 100%.
Work on `O=C(Nc1ccc(-c2cscn2)cc1)c1ccccc1Cl` [Example 10, 2-chloro-N-(4-(thiazol-4-yl)phenyl)benzamide] yielded an activity at 0.5 µM of 26 to 50%.
`CS(=O)(=O)c1ccc(C(=O)Nc2ccc(-c3cscn3)cc2)c(Cl)c1` [Example 11, 2-chloro-(4-methylsulfonyl)-N-(4-(thiazol-4-yl)phenyl)benzamide] gave an activity at 0.5 µM of 26 to 50%.
Molecule `CC(C)(O)c1nc(-c2ccc(NC(=O)c3ccc(S(C)(=O)=O)cc3Cl)cc2)cs1` [Example 12, 2-chloro-N-(4-(2-(2-hydroxypropan-2-yl)thiazol-4-yl)phenyl)-4-(methylsulfonyl)benzamide] has an activity at 0.5 µM of 26 to 50%.
`CS(=O)(=O)c1ccc(C(=O)Nc2ccc(-c3csc(CO)n3)cc2)c(Cl)c1` [Example 13, 2-chloro-N-(4-(2-(hydroxymethyl)thiazol-4-yl)phenyl)-4-(methylsulfonyl)benzamide] gave an activity at 0.5 µM of 51 to 75%.
Molecule `Cc1nc(-c2ccc(NC(=O)c3ccccc3Cl)cc2)cs1` [Example 14] has an activity at 0.5 µM of 0 to 25%.
Work on `Cc1nc(-c2ccc(NC(=O)c3ccccc3S(C)(=O)=O)cc2)cs1` [Example 15] yielded an activity at 0.5 µM of 76 to 100%.
Molecule `COc1ccc(C(=O)Nc2ccc(-c3csc(C)n3)cc2)c(C)c1` [Example 16] has an activity at 0.5 µM of 0 to 25%.
`COc1ccc(C(=O)Nc2ccc(-c3csc(C)n3)cc2)c(F)c1` [Example 17] was tested, and the activity at 0.5 µM was 0 to 25%.
With `Cc1nc(-c2ccc(NC(=O)c3ccc(C#N)cc3)cc2)cs1` [Example 18] the activity at 0.5 µM was 26 to 50%.
